System: West Nile virus
Experiment: anti-West Nile virus activity of xanthine analogs in HEK293 cells
Type: cell-based
Settings: HEK293, read-out: EC90 (effective concentration to inhibit 90% of virus)

SMILES	EC90 [µM]
Cc1ccc(C)c(CN2CCN(c3nc4c([nH]3)c(=O)[nH]c(=O)n4C)CC2)c1 [Compound 7, 8-(4-(2,5-Dimethylbenzyl)piperazin-1-yl)-3-methyl-3,7-dihydro-1H-purine-2,6-dione]	> 10
Cc1ccc(C)c(CN2CCN(c3nc4c(c(=O)[nH]c(=O)n4C)n3Cc3cccnc3)CC2)c1 [Compound 10, 8-(4-(2,5-Dimethylbenzyl)piperazin-1-yl)-3-methyl-7-(pyridin-3-ylmethyl)-3,7-dihydro-1H-purine-2,6-dione]	> 10
Cn1c(=O)[nH]c(=O)c2c1nc(N1CCNCC1)n2Cc1ccccc1F [Compound 21, 7-(2-Fluorobenzyl)-3-methyl-8-(piperazin-1-yl)-3,7-dihydro-1H-purine-2,6-dione]	> 10
Cn1c(=O)[nH]c(=O)c2c1nc(N1CCN(C3CC3)CC1)n2Cc1ccccc1F [Compound 23, 8-(4-Cyclopropylpiperazin-1-yl)-7-(2-fluorobenzyl)-3-methyl-3,7-dihydro-1H-purine-2,6-dione]	> 10
Cn1c(=O)[nH]c(=O)c2c1nc(N1CCN(C(C)(C)C)CC1)n2Cc1ccccc1F [Compound 24, 8-(4-(tert-Butyl)piperazin-1-yl)-7-(2-fluorobenzyl)-3-methyl-3,7-dihydro-1H-purine-2,6-dione]	> 10
Cn1c(=O)[nH]c(=O)c2c1nc(N1CCN(C3CCC3)CC1)n2Cc1ccccc1F [Compound 25, 8-(4-Cyclobutylpiperazin-1-yl)-7-(2-fluorobenzyl)-3-methyl-3,7-dihydro-1H-purine-2,6-dione]	> 10
Cn1c(=O)[nH]c(=O)c2c1nc(N1CCN(c3ccc(C(C)(C)C)cc3)CC1)n2Cc1ccccc1F [Compound 29, 8-(4-(4-(tert-Butyl)phenyl)piperazin-1-yl)-7-(2-fluorobenzyl)-3-methyl-3,7-dihydro-1H-purine-2,6-dione]	> 10
Cn1c(=O)[nH]c(=O)c2c1nc(N1CCN(c3ccc(Cl)cc3F)CC1)n2Cc1ccccc1F [Compound 31, 8-(4-(4-Chloro-2-fluorophenyl)piperazin-1-yl)-7-(2-fluorobenzyl)-3-methyl-3,7-dihydro-1H-purine-2,6-dione]	> 10
Cn1c(=O)[nH]c(=O)c2c1nc(N1CCN(c3ccc(C#N)cn3)CC1)n2Cc1ccccc1F [Compound 32, 6-(4-(7-(2-Fluorobenzyl)-3-methyl-2,6-dioxo-2,3,6,7-tetrahydro-1H-purin-8-yl)piperazin-1-yl)nicotinonitrile]	> 10
Cn1c(=O)[nH]c(=O)c2c1nc(N1CCN(c3ccccn3)CC1)n2Cc1ccccc1F [Compound 33, 7-(2-Fluorobenzyl)-3-methyl-8-(4-(pyridin-2-yl)piperazin-1-yl)-3,7-dihydro-1H-purine-2,6-dione]	> 10
Cn1c(=O)[nH]c(=O)c2c1nc(N1CCN(C(=O)c3ccc(C(C)(C)C)nc3)CC1)n2Cc1ccccc1F [Compound 45, 8-(4-(6-(tert-Butyl)nicotinoyl)piperazin-1-yl)-7-(2-fluorobenzyl)-3-methyl-3,7-dihydro-1H-purine-2,6-dione]	> 10
Cc1ccc(C)c(CCN2CCN(c3nc4c(c(=O)[nH]c(=O)n4C)n3Cc3ccccc3F)CC2)c1 [Compound 46, 8-(4-(2,5-Dimethylphenethyl)piperazin-1-yl)-7-(2-fluorobenzyl)-3-methyl-3,7-dihydro-1H-purine-2,6-dione]	10.2
Cn1c(=O)[nH]c(=O)c2c1nc(N1CCN(CCc3ccc(C(C)(C)C)cc3)CC1)n2Cc1ccccc1F [Compound 47, 8-(4-(4-(tert-Butyl)phenethyl)piperazin-1-yl)-7-(2-fluorobenzyl)-3-methyl-3,7-dihydro-1H-purine-2,6-dione]	13.6
Cc1ccc(C)c(CC(=O)N2CCN(c3nc4c(c(=O)[nH]c(=O)n4C)n3Cc3ccccc3F)CC2)c1 [Compound 48, 8-(4-(2-(2,5-Dimethylphenyl)acetyl)piperazin-1-yl)-7-(2-fluorobenzyl)-3-methyl-3,7-dihydro-1H-purine-2,6-dione]	> 10

— patent US11578073B2, “Xanthine analogs as potent anti-West Nile viral agents” (Southern Research Institute, priority 2019, dated 2023)
